Laboratory results taken from PubChem BioAssay AID1259407 (Chemical Carcinogenesis Research Information System (CCRIS), 2018).
Activity calls are given as the source filed them. How the calls were made is not given here.

Test system: CCRIS mutagenicity, Ames/micronucleus/aberration tests
Assay: CCRIS mutagenicity studies

How did the mutagenic call (Test System: AMES SALMONELLA TYPHIMURIUM, Strain/Indicator: TA92, Metabolic Activation: NONE, Method: STANDARD PLATE) turn out when `[O]=[Cr](=[O])([OH])[O][Cr](=[O])(=[O])[OH]` was run?
Its mutagenic call is “active; positive”.

What about the mutagenic call (Test System: AMES SALMONELLA TYPHIMURIUM, Strain/Indicator: TA97, Metabolic Activation: HAMSTER, LIVER, S-9, AROCLOR 1254 (30%), Method: PREINCUBATION) of the same molecule?
The mutagenic call was “active; positive”.

What about the mutagenic call (Test System: AMES SALMONELLA TYPHIMURIUM, Strain/Indicator: TA97, Metabolic Activation: NONE, Method: PREINCUBATION) of the same molecule?
The mutagenic call was “active; positive”.

And the mutagenic call (Test System: AMES SALMONELLA TYPHIMURIUM, Strain/Indicator: TA97, Metabolic Activation: RAT, LIVER, S-9, AROCLOR 1254 (30%), Method: PREINCUBATION)?
The mutagenic call was “active; positive”.

What about the mutagenic call (Test System: AMES SALMONELLA TYPHIMURIUM, Strain/Indicator: TA97A, Metabolic Activation: NONE, Method: MICROSUSPENSION-PREINCUBATION) of the same molecule?
The mutagenic call was “active; positive”.

What about the mutagenic call (Test System: AMES SALMONELLA TYPHIMURIUM, Strain/Indicator: TA97A, Metabolic Activation: RAT, LIVER, S-9, AROCLOR 1254, Method: MICROSUSPENSION-PREINCUBATION) of the same molecule?
The mutagenic call was “active; positive”.

What about the mutagenic call (Test System: AMES SALMONELLA TYPHIMURIUM, Strain/Indicator: TA98, Metabolic Activation: HAMSTER, LIVER, S-9, AROCLOR 1254 (30%), Method: PREINCUBATION) of the same molecule?
Its mutagenic call is “active; positive”.

What about the mutagenic call (Test System: AMES SALMONELLA TYPHIMURIUM, Strain/Indicator: TA98, Metabolic Activation: NONE, Method: MICROSUSPENSION-PREINCUBATION) of the same molecule?
Its mutagenic call is “active; positive”.

What about the mutagenic call (Test System: AMES SALMONELLA TYPHIMURIUM, Strain/Indicator: TA98, Metabolic Activation: NONE, Method: PREINCUBATION) of the same molecule?
Its mutagenic call is “active; positive”.

And the mutagenic call (Test System: AMES SALMONELLA TYPHIMURIUM, Strain/Indicator: TA98, Metabolic Activation: NONE, Method: STANDARD PLATE)?
The mutagenic call was “active; positive”.

What about the mutagenic call (Test System: AMES SALMONELLA TYPHIMURIUM, Strain/Indicator: TA98, Metabolic Activation: RAT, LIVER, S-9, AROCLOR 1254 (30%), Method: PREINCUBATION) of the same molecule?
The mutagenic call was “active; positive”.

What about the mutagenic call (Test System: AMES SALMONELLA TYPHIMURIUM, Strain/Indicator: TA98, Metabolic Activation: RAT, LIVER, S-9, AROCLOR 1254, Method: MICROSUSPENSION-PREINCUBATION) of the same molecule?
The mutagenic call was “active; positive”.

And the mutagenic call (Test System: AMES SALMONELLA TYPHIMURIUM, Strain/Indicator: TA98, Metabolic Activation: RAT, LIVER, S-9, Method: STANDARD PLATE)?
Its mutagenic call is “active; positive”.

What about the mutagenic call (Test System: AMES SALMONELLA TYPHIMURIUM, Strain/Indicator: TA100, Metabolic Activation: HAMSTER, LIVER, S-9, AROCLOR 1254 (30%), Method: PREINCUBATION) of the same molecule?
The mutagenic call was “active; positive”.

What about the mutagenic call (Test System: AMES SALMONELLA TYPHIMURIUM, Strain/Indicator: TA100, Metabolic Activation: NONE, Method: MICROSUSPENSION-PREINCUBATION) of the same molecule?
The mutagenic call was “active; positive”.

What about the mutagenic call (Test System: AMES SALMONELLA TYPHIMURIUM, Strain/Indicator: TA100, Metabolic Activation: NONE, Method: PREINCUBATION) of the same molecule?
The mutagenic call was “active; positive”.

What about the mutagenic call (Test System: AMES SALMONELLA TYPHIMURIUM, Strain/Indicator: TA100, Metabolic Activation: RAT, LIVER, S-9, AROCLOR 1254 (30%), Method: PREINCUBATION) of the same molecule?
The mutagenic call was “active; positive”.

What about the mutagenic call (Test System: AMES SALMONELLA TYPHIMURIUM, Strain/Indicator: TA100, Metabolic Activation: RAT, LIVER, S-9, AROCLOR 1254, Method: MICROSUSPENSION-PREINCUBATION) of the same molecule?
The mutagenic call was “active; positive”.

And the mutagenic call (Test System: AMES SALMONELLA TYPHIMURIUM, Strain/Indicator: TA100, Metabolic Activation: RAT, LIVER, S-9, AROCLOR 1254, Method: STANDARD PLATE)?
The mutagenic call was “active; positive”.

And the mutagenic call (Test System: AMES SALMONELLA TYPHIMURIUM, Strain/Indicator: TA100, Metabolic Activation: RAT, LIVER, S-9, Method: STANDARD PLATE)?
The mutagenic call was “active; positive”.

And the mutagenic call (Test System: AMES SALMONELLA TYPHIMURIUM, Strain/Indicator: TA102, Metabolic Activation: NONE, Method: FLUCTUATION TEST)?
The mutagenic call was “active; positive”.

And the mutagenic call (Test System: AMES SALMONELLA TYPHIMURIUM, Strain/Indicator: TA102, Metabolic Activation: NONE, Method: MICROSUSPENSION-PREINCUBATION)?
Its mutagenic call is “active; positive”.

What about the mutagenic call (Test System: AMES SALMONELLA TYPHIMURIUM, Strain/Indicator: TA102, Metabolic Activation: NONE, Method: STANDARD PLATE) of the same molecule?
Its mutagenic call is “active; positive”.

What about the mutagenic call (Test System: AMES SALMONELLA TYPHIMURIUM, Strain/Indicator: TA102, Metabolic Activation: RAT, LIVER, S-9, AROCLOR 1254, Method: MICROSUSPENSION-PREINCUBATION) of the same molecule?
The mutagenic call was “active; positive”.

What about the mutagenic call (Test System: AMES SALMONELLA TYPHIMURIUM, Strain/Indicator: TA103, Metabolic Activation: NONE, Method: STANDARD PLATE) of the same molecule?
Its mutagenic call is “active; positive”.

And the mutagenic call (Test System: AMES SALMONELLA TYPHIMURIUM, Strain/Indicator: TA104, Metabolic Activation: NONE, Method: STANDARD PLATE)?
Its mutagenic call is “active; positive”.

And the mutagenic call (Test System: AMES SALMONELLA TYPHIMURIUM, Strain/Indicator: TA1535, Metabolic Activation: NONE, Method: STANDARD PLATE)?
The mutagenic call was “inactive; negative”.

And the mutagenic call (Test System: AMES SALMONELLA TYPHIMURIUM, Strain/Indicator: TA1535, Metabolic Activation: RAT, LIVER, S-9, Method: STANDARD PLATE)?
The mutagenic call was “inactive; negative”.

What about the mutagenic call (Test System: AMES SALMONELLA TYPHIMURIUM, Strain/Indicator: TA1537, Metabolic Activation: NONE, Method: STANDARD PLATE) of the same molecule?
The mutagenic call was “inactive; negative”.

And the mutagenic call (Test System: AMES SALMONELLA TYPHIMURIUM, Strain/Indicator: TA1537, Metabolic Activation: RAT, LIVER, S-9, Method: STANDARD PLATE)?
The mutagenic call was “inactive; negative”.

What about the mutagenic call (Test System: AMES SALMONELLA TYPHIMURIUM, Strain/Indicator: TA1538, Metabolic Activation: NONE, Method: STANDARD PLATE) of the same molecule?
Its mutagenic call is “inactive; negative”.

What about the mutagenic call (Test System: AMES SALMONELLA TYPHIMURIUM, Strain/Indicator: TA1538, Metabolic Activation: RAT, LIVER, S-9, Method: STANDARD PLATE) of the same molecule?
The mutagenic call was “inactive; negative”.

What about the mutagenic call (Test System: AMES SALMONELLA TYPHIMURIUM, Strain/Indicator: TA2638, Metabolic Activation: NONE, Method: PREINCUBATION) of the same molecule?
Its mutagenic call is “active; positive”.

And the mutagenic call (Test System: AMES SALMONELLA TYPHIMURIUM, Strain/Indicator: TA2638, Metabolic Activation: NONE, Method: STANDARD PLATE)?
The mutagenic call was “active; positive”.

What about the mutagenic call (Test System: AMES SALMONELLA TYPHIMURIUM, Strain/Indicator: TA2638A, Metabolic Activation: NONE, Method: STANDARD PLATE) of the same molecule?
Its mutagenic call is “active; positive”.

And the mutagenic call (Test System: E. COLI, Strain/Indicator: WP2 (PKM101), Metabolic Activation: NONE, Method: STANDARD PLATE)?
The mutagenic call was “active; positive”.

And the mutagenic call (Test System: E. COLI, Strain/Indicator: WP2 UVRA (PKM101), Metabolic Activation: NONE, Method: STANDARD PLATE)?
Its mutagenic call is “active; positive”.

And the mutagenic call (Test System: E. COLI, Strain/Indicator: WP2 UVRA, Metabolic Activation: NONE, Method: SPOT TEST)?
The mutagenic call was “active; positive”.

What about the mutagenic call (Test System: E. COLI, Strain/Indicator: WP2 UVRA, Metabolic Activation: NONE, Method: STANDARD PLATE) of the same molecule?
Its mutagenic call is “active; positive”.

What about the mutagenic call (Test System: UDS HUMAN AMNION FL CELL LINE, Strain/Indicator: THY INCORP, Metabolic Activation: NONE, Method: LIQUID SCINTILLATION COUNTING) of the same molecule?
Its mutagenic call is “active; positive”.
